The assay concerns the target PD-L1 His protein / PD-1 Fc protein (Homo sapiens, UniProt Q9NZQ7). Kind of assay: HTRF Assay (PD-1/PD-L1 interaction). Format: binding. As to conditions: PD-L1 His 6 nM, PD-1 Fc 6 nM. The gist of the method: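 HTRF: PD-L1 His (6 nM final), compound (3-fold dilutions, 20 μM to 0.001 μM final) and PD-1 Fc (6 nM final) preincubated 15 min at room temperature. Anti-human IgG-XL665 and anti-6HIS Tb cryptate (mixed at 6.7 nM and 0.35 nM) then added for 1 h at room temperature before reading.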
In general terms: Time-resolved FRET reads energy transfer from a long-lived donor to a nearby acceptor.

This passage reports IC50 results from patent US20230143612A1 (Arbutus Biopharma Corporation, priority 2020, published 2023).

Sequence of PD-L1 His protein / PD-1 Fc protein (Q9NZQ7 19-238 limits assumed): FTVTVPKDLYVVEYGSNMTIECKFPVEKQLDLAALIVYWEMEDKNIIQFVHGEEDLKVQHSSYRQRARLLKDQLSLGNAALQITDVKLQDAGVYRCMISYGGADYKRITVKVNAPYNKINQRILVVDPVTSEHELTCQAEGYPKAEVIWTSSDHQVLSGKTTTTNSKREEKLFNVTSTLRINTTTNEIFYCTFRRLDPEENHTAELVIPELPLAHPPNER

One may read the IC50 as the concentration that inhibits the measured activity by half. A high value points to weaker potency. Regarding `COc1nc(-c2cccc(-c3cccc(-c4ccn5c(=O)c(CN6CC7(CNC(=O)C7)C6)cnc5c4)c3Cl)c2Cl)ccc1CN1CC2(CNC(=O)C2)C1` [Example 70, 8-(2,2′-Dichloro-3′-(6-methoxy-5-((7-oxo-2,6-diazaspiro[3.4]octan-2-yl)methyl)pyridin-2-yl)-[1,1′-biphenyl]-3-yl)-3-((7-oxo-2,6-diazaspiro[3.4]octan-2-yl)methyl)-4H-pyrido[1,2-a]pyrimidin-4-one], the IC50 is 7.1 nM. In the case of `COc1nc(-c2cccc(-c3cccc(-c4ccn5c(=O)c(CNC[C@@H]6CCC(=O)N6)cnc5c4)c3Cl)c2Cl)cnc1N1CC(N)C1` [Example 71, (S)-8-(3′-(5-(3-Aminoazetidin-1-yl)-6-methoxypyrazin-2-yl)-2,2′-dichloro-[1,1′-biphenyl]-3-yl)-3-((((5-oxopyrrolidin-2-yl)methyl)amino)methyl)-4H-pyrido[1,2-a]pyrimidin-4-one], the IC50 came out at 2 nM. Next, `CCOc1nc(-c2cccc(-c3cccc(-c4ccn5c(=O)c(CNC[C@@H]6CCC(=O)N6)cnc5c4)c3C)c2Cl)ccc1CNC[C@@H]1CCC(=O)N1` [Example 72, 8-(2′-Chloro-3′-(6-ethoxy-5-(((((S)-5-oxopyrrolidin-2-yl)methyl)amino)methyl)pyridin-2-yl)-2-methyl-[1,1′-biphenyl]-3-yl)-3-(((((S)-5-oxopyrrolidin-2-yl)methyl)amino)methyl)-4H-pyrido[1,2-a]pyrimidin-4-one]: 9.4 nM; `CNc1nc(-c2cccc(-c3cccc(-c4ccn5c(=O)c(CNC[C@@H]6CCC(=O)N6)cnc5c4)c3C)c2Cl)ccc1CNC[C@@H]1CCC(=O)N1` [Example 73, 8-(2′-Chloro-2-methyl-3′-(6-(methylamino)-5-(((((S)-5-oxopyrrolidin-2-yl)methyl)amino)methyl)pyridin-2-yl)-[1,1′-biphenyl]-3-yl)-3-(((((S)-5-oxopyrrolidin-2-yl)methyl)amino)methyl)-4H-pyrido[1,2-a]pyrimidin-4-one]: 6.3 nM; `CCNc1nc(-c2cccc(-c3cccc(-c4ccn5c(=O)c(CNC[C@@H]6CCC(=O)N6)cnc5c4)c3C)c2Cl)ccc1CNC[C@@H]1CCC(=O)N1` [Example 74, 8-(2′-Chloro-3′-(6-(ethylamino)-5-(((((S)-5-oxopyrrolidin-2-yl)methyl)amino)methyl)pyridin-2-yl)-2-methyl-[1,1′-biphenyl]-3-yl)-3-(((((S)-5-oxopyrrolidin-2-yl)methyl)amino)methyl)-4H-pyrido[1,2-a]pyrimidin-4-one]: 15 nM. Next, `COc1nc(-c2cccc(-c3cccc(-c4ccn5c(=O)c(CNCCO)cnc5c4)c3Cl)c2Cl)ccc1CNCCO` [Example 75, 8-(2,2′-Dichloro-3′-(5-(((2-hydroxyethyl)amino)methyl)-6-methoxypyridin-2-yl)-[1,1′-biphenyl]-3-yl)-3-(((2-hydroxyethyl)amino)methyl)-4H-pyrido[1,2-a]pyrimidin-4-one]: 3.4 nM. Next, `Cc1c(-c2ccn3c(=O)c(CNC[C@@H]4CCC(=O)N4)cnc3c2)cccc1-c1cccc(-c2ccc3c(c2)CCC3NC[C@@H]2CCC(=O)N2)c1Cl` (stereo partly drawn) [Example 76, 8-(2′-Chloro-2-methyl-3′-(1-((((S)-5-oxopyrrolidin-2-yl)methyl)amino)-2,3-dihydro-1H-inden-5-yl)-[1,1′-biphenyl]-3-yl)-3-(((((S)-5-oxopyrrolidin-2-yl)methyl)amino)methyl)-4H-pyrido[1,2-a]pyrimidin-4-one]: 3.4 nM; `COc1cc(-c2cccc(-c3cccc(-c4ccn5c(=O)c(CNC[C@@H]6CCC(=O)N6)cnc5c4)c3C)c2Cl)ncc1CNC[C@@H]1CCC(=O)N1` [Example 77, 8-[3-[2-Chloro-3-[4-methoxy-5-[[[(2S)-5-oxopyrrolidin-2-yl]methylamino]methyl]-2-pyridyl]phenyl]-2-methyl-phenyl]-3-[[[(2S)-5-oxopyrrolidin-2-yl]methylamino]methyl]pyrido[1,2-a]pyrimidin-4-one]: 6.3 nM. As for `Cc1c(-c2ccn3c(=O)c(CNC[C@@H]4CCC(=O)N4)cnc3c2)cccc1-c1cccc(-c2ccc(CNC[C@@H]3CCC(=O)N3)c(C(F)(F)F)n2)c1Cl` [Example 78, 8-(2′-Chloro-2-methyl-3′-(5-(((((S)-5-oxopyrrolidin-2-yl)methyl)amino)methyl)-6-(trifluoromethyl)pyridin-2-yl)-[1,1′-biphenyl]-3-yl)-3-(((((S)-5-oxopyrrolidin-2-yl)methyl)amino)methyl)-4H-pyrido[1,2-a]pyrimidin-4-one], the concentration for half-maximal inhibition (IC50) came to 16 nM. Next, `Cc1nc(-c2cccc(-c3cccc(-c4ccn5c(=O)c(CNC[C@@H]6CCC(=O)N6)cnc5c4)c3C)c2Cl)ccc1CNC[C@@H]1CCC(=O)N1` [Example 79, 8-(2′-Chloro-2-methyl-3′-(6-methyl-5-(((((S)-5-oxopyrrolidin-2-yl)methyl)amino)methyl)pyridin-2-yl)-[1,1′-biphenyl]-3-yl)-3-(((((S)-5-oxopyrrolidin-2-yl)methyl)amino)methyl)-4H-pyrido[1,2-a]pyrimidin-4-one]: 2.8 nM; `COc1nc(-c2cccc(-c3cccc(-c4ccn5c(=O)c(CNCCO)cnc5c4)c3Cl)c2Cl)ccc1CNC[C@@H]1CCC(=O)N1` [Example 80, (S)-8-(2,2′-Dichloro-3′-(6-methoxy-5-((((5-oxopyrrolidin-2-yl)methyl)amino)methyl)pyridin-2-yl)-[1,1′-biphenyl]-3-yl)-3-(((2-hydroxyethyl)amino)methyl)-4H-pyrido[1,2-a]pyrimidin-4-one]: 4.2 nM. Next, `COc1nc(-c2cccc(-c3cccc(-c4ccn5c(=O)c(CNCCNC(C)=O)cnc5c4)c3Cl)c2Cl)ccc1CNC[C@@H]1CCC(=O)N1` [Example 81, (S)—N-(2-(((8-(2,2′-Dichloro-3′-(6-methoxy-5-((((5-oxopyrrolidin-2-yl)methyl)amino)methyl)pyridin-2-yl)-[1,1′-biphenyl]-3-yl)-4-oxo-4H-pyrido[1,2-a]pyrimidin-3-yl)methyl)amino)ethyl)acetamide]: 8.3 nM; `COc1nc(-c2cccc(-c3cccc(-c4ccn5nc(CNC[C@@H]6CCC(=O)N6)cc5n4)c3Cl)c2Cl)ccc1CNC[C@@H]1CCC(=O)N1` [Example 82, (S)-5-((((6-(2,2′-Dichloro-3′-(2-(((((S)-5-oxopyrrolidin-2-yl)methyl)amino)methyl)pyrazolo[1,5-a]pyrimidin-5-yl)-[1,1′-biphenyl]-3-yl)-2-methoxypyridin-3-yl)methyl)amino)methyl)pyrrolidin-2-one]: 9.9 nM.

The compound `COc1nc(-c2cccc(-c3cccc(-c4ccn5c(=O)c(CN6CC[C@H](C(=O)O)C6)cnc5c4)c3Cl)c2Cl)ccc1CN1CC(CO)C1` [Example 83, (S)-1-((8-(2,2′-Dichloro-3′-(5-((3-(hydroxymethyl)azetidin-1-yl)methyl)-6-methoxypyridin-2-yl)-[1,1′-biphenyl]-3-yl)-4-oxo-4H-pyrido[1,2-a]pyrimidin-3-yl)methyl)pyrrolidine-3-carboxylic acid] yielded an IC50 of 0.4 nM.

The compound `COc1nc(-c2cccc(-c3cccc(-c4ccn5c(=O)c(CN6CC(C(=O)O)C6)cnc5c4)c3Cl)c2Cl)ccc1CN1CC(CO)C1` [Example 84, 1-((8-(2,2′-Dichloro-3′-(5-((3-(hydroxymethyl)azetidin-1-yl)methyl)-6-methoxypyridin-2-yl)-[1,1′-biphenyl]-3-yl)-4-oxo-4H-pyrido[1,2-a]pyrimidin-3-yl)methyl)azetidine-3-carboxylic acid] returned an IC50 of 0.3 nM. In the case of `COc1nc(-c2cccc(-c3cccc(-c4ccn5c(=O)c(CNC[C@@H]6CCC(=O)N6)ccc5c4)c3Cl)c2Cl)ccc1CNC[C@@H]1CCC(=O)N1` [Example 85, 8-(2,2′-Dichloro-3′-(6-methoxy-5-(((((S)-5-oxopyrrolidin-2-yl)methyl)amino)methyl)pyridin-2-yl)-[1,1′-biphenyl]-3-yl)-3-(((((S)-5-oxopyrrolidin-2-yl)methyl)amino)methyl)-4H-quinolizin-4-one] it was 2.5 nM; in that of `COc1nc(-c2cc(F)cc(-c3cccc(-c4ccn5c(=O)c(CNC[C@@H]6CCC(=O)N6)cnc5c4)c3Cl)c2Cl)ccc1CNC[C@@H]1CCC(=O)N1` [Example 86, 8-(2,2′-Dichloro-5′-fluoro-3′-(6-methoxy-5-(((((S)-5-oxopyrrolidin-2-yl)methyl)amino)methyl)pyridin-2-yl)-[1,1′-biphenyl]-3-yl)-3-(((((S)-5-oxopyrrolidin-2-yl)methyl)amino)methyl)-4H-pyrido[1,2-a]pyrimidin-4-one], 4.1 nM; in that of `O=C1CC[C@@H](CNCc2ccc(-c3cccc(-c4cccc(-c5ccn6c(=O)c(CNC[C@@H]7CCC(=O)N7)cnc6c5)c4Cl)c3Cl)cc2OC(F)(F)F)N1` [Example 87, 8-(2,2′-dichloro-4″-(((((S)-5-oxopyrrolidin-2-yl)methyl)amino)methyl)-3″-(trifluoromethoxy)-[1,1′:3′,1″-terphenyl]-3-yl)-3-(((((S)-5-oxopyrrolidin-2-yl)methyl)amino)methyl)-4H-pyrido[1,2-a]pyrimidin-4-one], 2.6 nM.

Consider `Cc1c(-c2ccn3c(=O)c(CNC[C@@H]4CCC(=O)N4)cnc3c2)cccc1-c1cccc(-c2ccc(CNC[C@@H]3CCC(=O)N3)c(OC(F)(F)F)c2)c1Cl` [Example 88, 8-(2′-Chloro-2-methyl-4″-(((((S)-5-oxopyrrolidin-2-yl)methyl)amino)methyl)-3″-(trifluoromethoxy)-[1,1′:3′,1″-terphenyl]-3-yl)-3-(((((S)-5-oxopyrrolidin-2-yl)methyl)amino)methyl)-4H-pyrido[1,2-a]pyrimidin-4-one], for which the IC50 turned out to be 11 nM. `CNc1nc(-c2cccc(-c3cccc(-c4ccn5c(=O)c(CNC[C@@H]6CCC(=O)N6)cnc5c4)c3Cl)c2Cl)ccc1CNC[C@@H]1CCC(=O)N1` [Example 89, 8-(2,2′-Dichloro-3′-(6-(methylamino)-5-(((((S)-5-oxopyrrolidin-2-yl)methyl)amino)methyl)pyridin-2-yl)-[1,1′-biphenyl]-3-yl)-3-(((((S)-5-oxopyrrolidin-2-yl)methyl)amino)methyl)-4H-pyrido[1,2-a]pyrimidin-4-one]: the IC50 came out at 3.5 nM.
